Reference: paper PMC3022839 (BMC Medical Imaging, 2011)
One block for each compound: values may come before it.

What was measured:
18FDG brain uptake (PET) = assay type: in vivo, rat; settings: 60 minutes after injection
Description: No post-reconstruction filtering was applied.

[1] = test system: P-glycoprotein (P-gp) at the blood-brain barrier; assay: Population mixed effects modelling (NONMEM) of (R)-[11C]verapamil brain kinetics
Procedure: Rats from the different groups were randomly assigned to experimental days and scanned in pairs for 60 minutes using a double LSO/LYSO layer High Resolution Research Tomograph (HRRT, CTI/Siemens, Knoxville, TN, USA) [37]. […] The other half was treated only with vehicle (3 mL/kg). […] The purpose of the ^18FDG scan was to outline the brain to aid in defining regions of interest. The HRRT scanner acquires data in list mode, enabling post-scan definition of the frame sequence. The final frame sequence used for analysis was 6 × 10, 2 × 30, 3 × 60, 2 × 150, 2 × 300 and 4 × 600 seconds. Studies were reconstructed using an iterative 3 D ordered-subsets weighted least-squares (3D-OSWLS) method with 8 iterations and 16 subsets [39]. No post-reconstruction filtering was applied. […]
PET image data were analyzed using the freely available software package Amide 0.8.22 [44]. […] To correct for an intravascular contribution, radioactivity measured in whole blood was exponentially interpolated to obtain blood radioactivity values at each mid frame time point and then subtracted from the brain time-activity curves, assuming that cerebral blood volume was 3% of the total brain volume [45]. […]
(§1) The NONMEM model was constructed in two steps. […] One, two and three compartment models were evaluated. […] Again, one and two compartment models were evaluated, and treatment, rat group and animal weight were included as covariates. […]

Sprague-Dawley rats = assay: Kainate-induced status epilepticus; assay type: in vivo, rat
Procedure: Adult male Sprague-Dawley rats (n = 50, Harlan, Horst, The Netherlands) weighing 200-224 g at arrival were housed in groups of 5-6 per cage until treatment. They were kept at a constant temperature of 21°C and at a 12 h light/dark cycle, in which lights were switched on at 8:00 AM. Animals had unrestricted access to food (Teklad Global 16% Protein Rodent Diet, Harlan, Madison, WI, USA) and water. Animal procedures were performed in accordance with Dutch laws on animal experimentation. All experiments were approved by the Ethics Committee for Animal Experiments of Leiden University (approval number UDEC08178). After approximately one week of habituation and 7 days prior to PET investigation rats were treated with either kainic acid (5 mg/mL) or saline. Kainic acid was administered repeatedly as a 10 mg/kg (2 mL/kg) i.p. injection followed by 5 mg/kg (1 mL/kg) i.p. every 30-60 minutes until stage IV seizures according to Racine's scale occurred, or when a total amount of 30 mg/kg kainic acid was reached. Control rats were treated with 3 saline i.p. injections using the same volumes as for the kainate treated rats, 30 minutes apart. After treatment rats were housed individually.

P-glycoprotein (P-gp) = assay: P-gp expression in brain capillaries (immunohistochemistry, C219); assay type: in vivo, rat; settings: kainate vs saline treated rats, 7 days after treatment; cortex and hippocampus CA1
[2] = Tariquidar plasma concentration (LC/MS); assay type: in vivo; settings: Sprague-Dawley, rat, intravenous, 15 mg/kg, 2 hours after tariquidar 15 mg/kg i.v., mean ± s.d.
[3] = Population mixed effects modelling (NONMEM) of (R)-[11C]verapamil plasma kinetics; settings: tariquidar 15 mg/kg i.v. co-administration vs vehicle
Description: Plasma time-activity curves were corrected for tracer metabolism before they were used as input for kinetic modelling. […] Two types of corrections were used: (1) complete metabolite correction and (2) correction only for polar metabolites. […] Mathematically, this is described by the following equations:
Nonlinear mixed effects modelling, using NONMEM VI (GloboMax LLC, Hanover, MD, USA), provide a tool for analyzing repeated measurements data in which the relationship between the explanatory and response variables can be modeled as a single function, allowing the parameters to differ between individuals. In addition, these techniques recognize that the variability associated with the response variable for a given individual may depend on the response value in a way that is similar for all individuals. This could be due, for example, to properties associated with measurement error.
Data from all rats was processed simultaneously. The subroutine ADVAN 9 and first-order conditional estimation with interaction were used throughout the modelling procedure. […]
as §1

18FDG brain uptake, SUV (18FDG brain uptake (PET); kainate treated rats, mean ± s.d.): 2.0 ± 0.4
18FDG brain uptake, SUV (18FDG brain uptake (PET); saline treated rats, mean ± s.d.): 1.6 ± 0.3
18FDG brain uptake, SUV (18FDG brain uptake (PET); with or without tariquidar co-administration (both groups)): 1.8 ± 0.4
Compound: O=C[C@H]([18F])[C@@H](O)[C@H](O)[C@H](O)CO [^18FDG]

Compound: C=C(C)[C@H]1CN[C@H](C(=O)O)[C@H]1CC(=O)O [kainic acid]
Covariate kainate on Vbr1 of (R)-[11C]verapamil (fractional difference) ([1]; kainate vs saline treated rats, 7 days after treatment): 1.32 (0.416)
increase of Vbr1 of (R)-[11C]verapamil in kainate treated compared to saline treated rats ([1]; population model, rat group as covariate, 7 days after kainate): 32%
duration of seizures (Sprague-Dawley rats; after kainic acid i.p.): 1 to 2 h
seizure stage reached (Racine's scale) (Sprague-Dawley rats; kainic acid i.p. 10 mg/kg then 5 mg/kg every 30-60 minutes, all rats, except one): stage IV-V seizures
rats that died as a result of treatment (Sprague-Dawley rats; kainic acid i.p., up to 30 mg/kg): Four
time to status epilepticus after the last injection (Sprague-Dawley rats; typically 3 injections, i.e. 20 mg/kg i.p.): ≤ 20 min
P-gp expression, P-gp labelled surface area (P-glycoprotein (P-gp)): trend towards higher P-gp expression
P-gp expression, optical density (P-glycoprotein (P-gp)): no difference

concentration at 2 h ([2]; kainate group): 1600 ± 300 ng/mL
concentration at 2 h ([2]; saline group): 1800 ± 300 ng/mL
Compound: COc1cc2c(cc1OC)CN(CCc1ccc(NC(=O)c3cc(OC)c(OC)cc3NC(=O)c3cnc4ccccc4c3)cc1)CC2 [tariquidar, Tariquidar]
Covariate tariquidar on Vp1 of (R)-[11C]verapamil (fractional difference) [3]: 1.20 (0.119)
